Measurements: paper PMC9329436, “Optimization of the 4-anilinoquin(az)oline scaffold as epidermal growth factor receptor (EGFR) inhibitors for chordoma utilizing a toxicology profiling assay platform” (Scientific Reports, 2022)
Like-named read-outs stand apart in the source and are kept apart here.

Key:
Assay type in all cases: biochemical
[1] = target: 320 wild-type protein kinases (Homo sapiens, UniProt Q9UK32); conditions: kinase RPS6KA6, singlicate
From the text: (§1) Table S4. Profiling of two compounds at two concentrations against 320 wild-type protein kinases; singlicate measurement; Residual activities (% of control).

[2] = target: 320 wild-type protein kinases (Homo sapiens, UniProt P53779); conditions: singlicate
From the text: as §1

[3] = target: 320 wild-type protein kinases (Homo sapiens, UniProt Q14289); conditions: kinase PYK2, singlicate
From the text: as §1

[4] = target: 320 wild-type protein kinases (Homo sapiens, UniProt P43250); conditions: singlicate
From the text: as §1

[5] = target: T1, 320 wild-type protein kinases (Homo sapiens, UniProt Q99640); conditions: singlicate
T1 sequence (Q99640 1-499): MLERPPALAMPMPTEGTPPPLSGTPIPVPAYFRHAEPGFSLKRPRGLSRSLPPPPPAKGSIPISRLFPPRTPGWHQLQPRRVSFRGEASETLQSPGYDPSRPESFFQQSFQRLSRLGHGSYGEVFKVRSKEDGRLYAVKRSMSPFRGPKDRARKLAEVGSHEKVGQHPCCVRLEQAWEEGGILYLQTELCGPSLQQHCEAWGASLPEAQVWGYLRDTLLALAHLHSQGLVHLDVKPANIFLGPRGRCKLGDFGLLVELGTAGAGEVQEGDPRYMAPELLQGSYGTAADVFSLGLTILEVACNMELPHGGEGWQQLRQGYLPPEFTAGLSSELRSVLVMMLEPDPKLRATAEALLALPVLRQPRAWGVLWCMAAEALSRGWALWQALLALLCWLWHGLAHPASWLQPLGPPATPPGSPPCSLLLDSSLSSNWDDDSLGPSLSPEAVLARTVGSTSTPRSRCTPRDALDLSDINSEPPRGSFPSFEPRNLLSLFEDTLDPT
From the text: as §1

[6] = target: T2, 320 wild-type protein kinases (Homo sapiens, UniProt Q99986); conditions: kinase VRK1, singlicate
T2 sequence (Q99986 1-396): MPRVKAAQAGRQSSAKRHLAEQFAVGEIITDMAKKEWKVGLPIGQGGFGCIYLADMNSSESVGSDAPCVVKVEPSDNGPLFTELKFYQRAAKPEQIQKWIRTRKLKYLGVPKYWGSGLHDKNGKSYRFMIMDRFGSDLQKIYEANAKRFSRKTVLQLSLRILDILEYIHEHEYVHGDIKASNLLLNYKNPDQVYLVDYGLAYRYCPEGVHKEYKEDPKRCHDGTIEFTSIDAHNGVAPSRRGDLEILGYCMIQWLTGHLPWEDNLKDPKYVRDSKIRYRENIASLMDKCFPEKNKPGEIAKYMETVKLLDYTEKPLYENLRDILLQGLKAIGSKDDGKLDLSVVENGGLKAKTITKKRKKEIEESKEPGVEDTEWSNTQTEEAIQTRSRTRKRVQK
From the text: as §1

[7] = target: 320 wild-type protein kinases (Homo sapiens, UniProt P07949); conditions: kinase RET, singlicate
From the text: as §1

[8] = target: T3, 320 wild-type protein kinases (Homo sapiens, UniProt Q96L34); conditions: singlicate
T3 sequence (Q96L34 1-752): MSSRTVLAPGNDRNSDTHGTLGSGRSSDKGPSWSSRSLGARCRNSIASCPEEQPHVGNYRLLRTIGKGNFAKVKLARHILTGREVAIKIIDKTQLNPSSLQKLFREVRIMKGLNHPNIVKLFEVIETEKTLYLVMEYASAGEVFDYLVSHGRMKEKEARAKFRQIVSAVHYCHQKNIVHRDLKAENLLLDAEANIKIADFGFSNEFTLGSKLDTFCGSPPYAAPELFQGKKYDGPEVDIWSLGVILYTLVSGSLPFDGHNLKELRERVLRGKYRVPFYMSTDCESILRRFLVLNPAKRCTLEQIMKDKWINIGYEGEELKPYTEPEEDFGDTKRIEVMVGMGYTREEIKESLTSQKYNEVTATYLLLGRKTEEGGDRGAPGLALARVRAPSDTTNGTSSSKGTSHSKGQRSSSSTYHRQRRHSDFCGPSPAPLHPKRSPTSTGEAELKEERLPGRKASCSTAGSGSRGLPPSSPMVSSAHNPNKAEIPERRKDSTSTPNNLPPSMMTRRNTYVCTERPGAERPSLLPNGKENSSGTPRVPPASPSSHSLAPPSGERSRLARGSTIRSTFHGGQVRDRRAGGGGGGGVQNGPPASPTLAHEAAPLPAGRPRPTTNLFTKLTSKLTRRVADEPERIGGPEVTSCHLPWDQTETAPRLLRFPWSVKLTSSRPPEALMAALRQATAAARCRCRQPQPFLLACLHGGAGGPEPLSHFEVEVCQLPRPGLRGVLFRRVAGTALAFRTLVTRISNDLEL
From the text: as §1

[9] = target: 320 wild-type protein kinases (Homo sapiens, UniProt P49761); conditions: singlicate
From the text: as §1

320 wild-type protein kinases (Homo sapiens, UniProt P43250), sequence (P43250 whole entry): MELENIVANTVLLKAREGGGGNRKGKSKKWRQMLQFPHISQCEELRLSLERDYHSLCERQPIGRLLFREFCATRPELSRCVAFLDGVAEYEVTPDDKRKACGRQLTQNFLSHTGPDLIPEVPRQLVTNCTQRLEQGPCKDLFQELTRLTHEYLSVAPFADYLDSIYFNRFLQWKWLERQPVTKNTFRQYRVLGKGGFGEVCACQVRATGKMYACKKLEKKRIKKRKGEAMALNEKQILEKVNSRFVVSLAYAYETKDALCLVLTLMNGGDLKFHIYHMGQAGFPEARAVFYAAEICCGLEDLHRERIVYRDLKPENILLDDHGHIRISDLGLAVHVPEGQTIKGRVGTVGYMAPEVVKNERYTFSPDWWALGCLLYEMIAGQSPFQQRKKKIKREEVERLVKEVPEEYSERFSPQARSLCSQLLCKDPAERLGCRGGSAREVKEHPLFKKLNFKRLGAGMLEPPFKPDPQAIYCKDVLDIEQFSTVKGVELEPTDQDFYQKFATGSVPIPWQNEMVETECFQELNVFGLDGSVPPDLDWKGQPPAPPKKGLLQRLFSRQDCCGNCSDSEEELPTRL
320 wild-type protein kinases (Homo sapiens, UniProt P53779), sequence (P53779 whole entry): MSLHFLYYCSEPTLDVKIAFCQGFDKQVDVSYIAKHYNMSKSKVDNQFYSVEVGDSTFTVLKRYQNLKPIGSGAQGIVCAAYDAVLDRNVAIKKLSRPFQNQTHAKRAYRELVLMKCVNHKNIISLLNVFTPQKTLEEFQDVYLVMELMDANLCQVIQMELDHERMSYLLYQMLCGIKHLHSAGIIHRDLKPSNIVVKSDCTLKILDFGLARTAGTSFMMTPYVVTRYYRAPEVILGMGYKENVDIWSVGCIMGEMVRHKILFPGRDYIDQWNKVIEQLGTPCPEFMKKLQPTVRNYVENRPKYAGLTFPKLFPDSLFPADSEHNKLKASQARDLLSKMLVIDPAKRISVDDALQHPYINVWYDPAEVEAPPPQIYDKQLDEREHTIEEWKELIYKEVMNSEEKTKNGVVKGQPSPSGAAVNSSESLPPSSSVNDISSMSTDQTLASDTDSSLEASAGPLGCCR
320 wild-type protein kinases (Homo sapiens, UniProt P49761), sequence (P49761 whole entry): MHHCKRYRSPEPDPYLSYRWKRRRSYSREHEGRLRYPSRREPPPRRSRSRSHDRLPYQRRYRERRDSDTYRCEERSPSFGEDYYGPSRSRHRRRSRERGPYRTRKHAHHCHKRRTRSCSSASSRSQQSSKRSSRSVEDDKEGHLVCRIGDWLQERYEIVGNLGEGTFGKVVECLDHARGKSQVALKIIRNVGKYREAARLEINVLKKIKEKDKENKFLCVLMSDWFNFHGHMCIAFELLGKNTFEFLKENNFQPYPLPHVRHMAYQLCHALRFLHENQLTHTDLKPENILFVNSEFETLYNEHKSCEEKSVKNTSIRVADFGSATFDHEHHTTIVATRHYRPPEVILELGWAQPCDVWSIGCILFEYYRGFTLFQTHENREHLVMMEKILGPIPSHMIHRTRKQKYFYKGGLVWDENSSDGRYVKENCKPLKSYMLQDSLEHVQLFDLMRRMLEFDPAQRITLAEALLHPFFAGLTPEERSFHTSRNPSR
320 wild-type protein kinases (Homo sapiens, UniProt P07949), sequence (P07949 29-1114): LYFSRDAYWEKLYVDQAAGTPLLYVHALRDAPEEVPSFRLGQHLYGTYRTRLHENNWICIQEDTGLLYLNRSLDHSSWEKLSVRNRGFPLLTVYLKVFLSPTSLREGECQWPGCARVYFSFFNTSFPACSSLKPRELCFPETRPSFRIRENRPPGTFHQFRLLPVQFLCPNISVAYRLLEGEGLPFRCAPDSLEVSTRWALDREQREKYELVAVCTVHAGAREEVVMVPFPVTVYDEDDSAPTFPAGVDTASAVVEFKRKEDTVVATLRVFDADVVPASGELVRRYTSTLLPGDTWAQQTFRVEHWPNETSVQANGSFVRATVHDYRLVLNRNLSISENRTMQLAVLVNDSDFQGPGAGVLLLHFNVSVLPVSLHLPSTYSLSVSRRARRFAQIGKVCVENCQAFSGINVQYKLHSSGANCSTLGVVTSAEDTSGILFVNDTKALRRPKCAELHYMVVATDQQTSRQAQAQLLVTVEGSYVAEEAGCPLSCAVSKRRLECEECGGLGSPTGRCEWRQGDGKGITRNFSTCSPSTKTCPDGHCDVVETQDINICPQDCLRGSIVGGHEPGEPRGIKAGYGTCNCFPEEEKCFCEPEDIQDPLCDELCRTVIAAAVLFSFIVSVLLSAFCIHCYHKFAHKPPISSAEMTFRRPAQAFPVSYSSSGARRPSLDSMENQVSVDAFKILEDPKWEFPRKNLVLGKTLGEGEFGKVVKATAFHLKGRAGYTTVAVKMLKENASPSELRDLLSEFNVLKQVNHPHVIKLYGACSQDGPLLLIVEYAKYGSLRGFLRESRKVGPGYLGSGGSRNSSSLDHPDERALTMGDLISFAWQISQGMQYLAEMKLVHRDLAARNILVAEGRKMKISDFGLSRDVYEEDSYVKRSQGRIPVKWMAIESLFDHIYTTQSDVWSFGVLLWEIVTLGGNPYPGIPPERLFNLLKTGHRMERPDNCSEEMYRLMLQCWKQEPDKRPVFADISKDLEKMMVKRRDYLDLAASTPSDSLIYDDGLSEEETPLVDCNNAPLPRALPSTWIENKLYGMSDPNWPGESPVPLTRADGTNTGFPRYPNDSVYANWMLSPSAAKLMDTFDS
320 wild-type protein kinases (Homo sapiens, UniProt Q14289), sequence (Q14289 whole entry): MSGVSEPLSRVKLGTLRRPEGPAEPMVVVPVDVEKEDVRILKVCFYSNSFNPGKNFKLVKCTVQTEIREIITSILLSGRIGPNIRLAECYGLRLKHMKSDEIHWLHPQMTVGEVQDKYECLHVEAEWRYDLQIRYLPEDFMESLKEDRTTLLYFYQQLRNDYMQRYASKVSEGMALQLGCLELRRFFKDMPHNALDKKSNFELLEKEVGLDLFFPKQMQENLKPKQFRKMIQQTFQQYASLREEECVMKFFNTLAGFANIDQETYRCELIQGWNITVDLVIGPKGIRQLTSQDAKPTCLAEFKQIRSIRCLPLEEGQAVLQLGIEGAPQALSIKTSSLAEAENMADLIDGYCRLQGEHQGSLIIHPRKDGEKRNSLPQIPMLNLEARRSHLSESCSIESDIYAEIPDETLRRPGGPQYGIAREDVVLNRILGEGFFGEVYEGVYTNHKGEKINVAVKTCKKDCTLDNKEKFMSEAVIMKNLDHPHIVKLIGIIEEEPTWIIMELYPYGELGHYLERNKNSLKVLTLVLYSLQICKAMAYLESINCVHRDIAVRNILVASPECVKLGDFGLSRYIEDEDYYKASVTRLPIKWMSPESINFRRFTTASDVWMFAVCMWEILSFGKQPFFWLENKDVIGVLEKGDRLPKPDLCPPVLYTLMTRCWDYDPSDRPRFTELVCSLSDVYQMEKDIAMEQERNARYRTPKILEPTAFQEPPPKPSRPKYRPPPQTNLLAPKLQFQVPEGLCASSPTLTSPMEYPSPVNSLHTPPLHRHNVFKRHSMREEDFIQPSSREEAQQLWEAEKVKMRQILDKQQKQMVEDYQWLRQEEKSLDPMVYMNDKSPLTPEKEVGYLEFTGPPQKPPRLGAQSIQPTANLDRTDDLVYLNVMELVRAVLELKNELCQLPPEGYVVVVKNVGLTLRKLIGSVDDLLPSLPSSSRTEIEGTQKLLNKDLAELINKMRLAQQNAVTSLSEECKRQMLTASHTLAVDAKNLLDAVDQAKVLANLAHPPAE
320 wild-type protein kinases (Homo sapiens, UniProt Q9UK32), sequence (Q9UK32 whole entry): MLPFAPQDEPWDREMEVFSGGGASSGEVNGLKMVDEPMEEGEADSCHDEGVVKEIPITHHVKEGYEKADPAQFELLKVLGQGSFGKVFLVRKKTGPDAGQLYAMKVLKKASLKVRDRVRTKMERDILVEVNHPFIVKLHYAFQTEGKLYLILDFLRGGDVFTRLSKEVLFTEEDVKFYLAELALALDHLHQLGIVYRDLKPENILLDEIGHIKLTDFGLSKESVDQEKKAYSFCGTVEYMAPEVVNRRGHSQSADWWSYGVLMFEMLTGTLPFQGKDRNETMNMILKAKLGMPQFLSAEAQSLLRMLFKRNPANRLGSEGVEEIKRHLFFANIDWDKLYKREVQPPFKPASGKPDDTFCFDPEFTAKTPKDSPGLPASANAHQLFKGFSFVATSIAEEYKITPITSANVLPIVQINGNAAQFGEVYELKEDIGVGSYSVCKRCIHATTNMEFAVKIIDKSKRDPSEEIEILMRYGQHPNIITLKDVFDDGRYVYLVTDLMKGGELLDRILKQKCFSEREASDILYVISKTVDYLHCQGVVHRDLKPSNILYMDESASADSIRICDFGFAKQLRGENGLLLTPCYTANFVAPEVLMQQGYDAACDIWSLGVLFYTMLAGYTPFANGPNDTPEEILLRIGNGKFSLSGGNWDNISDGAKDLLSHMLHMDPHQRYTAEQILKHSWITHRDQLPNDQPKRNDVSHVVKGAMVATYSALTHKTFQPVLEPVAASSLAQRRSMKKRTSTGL

| Structure (SMILES) | Residual activity, RPS6KA6 ([1]; assay conc. 1.0E-06 M) | Residual activity, RPS6KA6 ([1]; assay conc. 1.0E-07 M) | Residual activity ([2]; JNK3, 1.0E-06 M) | Residual activity ([2]; JNK3, 1.0E-07 M) | Residual activity, PYK2 ([3]; assay conc. 1.0E-06 M) | Residual activity, PYK2 ([3]; assay conc. 1.0E-07 M) | Residual activity ([4]; GRK6, 1.0E-06 M) | Residual activity ([4]; GRK6, 1.0E-07 M) | Residual activity ([5]; PKMYT1, 1.0E-06 M) | Residual activity ([5]; PKMYT1, 1.0E-07 M) | Residual activity, VRK1 ([6]; assay conc. 1.0E-06 M) | Residual activity, VRK1 ([6]; assay conc. 1.0E-07 M) | Residual activity, RET ([7]; assay conc. 1.0E-06 M) | Residual activity, RET ([7]; assay conc. 1.0E-07 M) | Residual activity ([8]; MARK4, 1.0E-06 M) | Residual activity ([8]; MARK4, 1.0E-07 M) | Residual activity ([9]; CLK3, 1.0E-06 M) | Residual activity ([9]; CLK3, 1.0E-07 M) |
| --- | --- | --- | --- | --- | --- | --- | --- | --- | --- | --- | --- | --- | --- | --- | --- | --- | --- | --- |
| C#Cc1cc(Nc2ncnc3cc(I)ccc23)ccc1Cl [Compound 41] | 94 % of control | 103 % of control | 99 % of control | 90 % of control | 97 % of control | 103 % of control | 120 % of control | 124 % of control | 79 % of control | 88 % of control | 98 % of control | 109 % of control | 85 % of control | 102 % of control | 114 % of control | 111 % of control | 128 % of control | 146 % of control |
| C#Cc1cc(Nc2ncnc3cc(OC)c(OC)cc23)ccc1Cl [Compound 45] | 70 % of control | 93 % of control | 89 % of control | 92 % of control | 92 % of control | 95 % of control | 101 % of control | 133 % of control | 95 % of control | 114 % of control | 93 % of control | 104 % of control | 51 % of control | 101 % of control | 115 % of control | 110 % of control | 133 % of control | 127 % of control |
